| melting point | SMILES |
| --- | --- |
| 138 to 145 °C | OC1(c2ccc(Br)cc2)CCN(CCCc2noc3cc(F)ccc23)CC1 |
| 114 °C | O=C1c2ccc(Nc3ccc(F)cc3F)cc2CCc2ccc(OCCCN3CCOCC3)cc21 |
| 157 to 159 °C | CS(=O)(=O)c1ccc(-c2ncccc2C(=O)c2cccc(F)c2)cc1 |
| 123 to 133 °C | COc1ccc(C(O)Cc2ccncc2)c2c1OC1(CCCCC1)CC2 (configuration not stated) |
| 175 °C | CC(C#Cc1ccc(C=Cc2ccccn2)o1)N(O)C(N)=O (configuration not stated) |
| 207 to 208 °C | Cc1cc(C(=O)N(C)C)ncc1C(c1cc(F)ccc1F)S(=O)(=O)c1ccc(Cl)cc1 (configuration not stated) |
| 241 to 242 °C | C/N=C1\N(C)C(=O)C(=Cc2c[nH]c3ccccc23)N1C |
| 254 to 255 °C | CCn1ncc2c1ncc1c(NC)nc3cc(C)nn3c12 |
| 89 to 90 °C | Nc1ccc2c(c1)C(C(=O)Oc1ccccc1)CCC2 (configuration not stated) |
| 55 to 57 °C | Cc1nsnc1-c1cccnc1 |
| 95 to 97 °C | Nc1nsnc1-c1c(Cl)cccc1Cl |
| 210 to 213 °C | CC(=O)Oc1ccc(C=CC(=O)O)cc1Cl |
| 144 to 146 °C | Cc1c(O)c(C)c(Br)c(C)c1Br |
| 222 to 223 °C | Cn1c(COc2ccc(CC3SC(=O)NC3=O)cc2)nc2ccc(Cl)nc21 (configuration not stated) |
| 140 to 142 °C | O=C(O)C(O)c1ccccc1Nc1c(Cl)cccc1Cl (configuration not stated) |
| 99 °C | CC(=O)N1c2ccc([N+](=O)[O-])cc2CC1C(C)(C)C (configuration not stated) |
| 254 °C | O=C(OCc1ccccc1)c1n[nH]c2c(=O)[nH]c3cc(Cl)ccc3c(=O)c12 |
| 158 to 162 °C | Cc1c(CCN(C)C(=O)OC(C)(C)C)c2cc(S(=O)(=O)c3cc(F)cc(F)c3)ccc2n1C |
| 114 °C | CCOC(=O)c1cc(Cl)cnc1NC(=O)Cc1ccccc1 |
| 164 to 167 °C | CC(O)c1csc(S(N)(=O)=O)c1 (configuration not stated) |
| 239 to 240 °C | NC(=O)c1c(C(=O)O)cnn1-c1ccc(Cl)cc1Cl |
| 242 to 244 °C | Cc1nc(N)nc(N)c1-c1cc(Cl)cc(Cl)c1 |
| 113 °C | COc1cc2c(cc1OC)SCCC(C(=O)N1CCN(C(=O)c3cc(OC)c(OC)c(OC)c3)CC1)=C2 |
| 198 to 199 °C | O=C(NCCc1ccccn1)c1ccc2cc(C(=O)O)[nH]c2c1 |
| 178 to 179 °C | CCn1c(=O)n(OCc2ccccc2)c(=O)c2cc(F)c(N3CCN(C)CC3)nc21 |

| melting point | SMILES |
| --- | --- |
| 40 to 41 °C | COC(=O)CCc1cnoc1-c1ccc(F)cc1F |
| 188 to 189 °C | O=C(C=Cc1ccc2c(c1)OCO2)c1cccc(O)c1 |
| 94 to 96 °C | CCOC(=O)c1cnc2ccc(CC)nc2c1Cl |
| > 275 °C | Nc1cc2[nH]c(=O)ccc2cn1 |
| 104 °C | C=C(C)C(=O)NCC(=O)O |
| 223 to 224 °C | O=C1CN2Cc3cc(OCCCC(=O)N(CCO)CC4CCCCC4)ccc3N=C2N1 |
| 133 to 140 °C | O=C1C(=O)N(C2CCCCC2)C(=O)N1c1ccccc1 |
| 128 to 131 °C | COc1cc(C(=O)c2ccccc2[N+](=O)[O-])c(Br)cn1 |
| 145 to 148 °C | O=C(O)c1cnn(-c2cccc(C(F)(F)F)c2)c1 |
| 78 to 79 °C | CCS(=O)c1cnc(Cl)c(Cl)c1 (configuration not stated) |
| 82 to 85 °C | CC1(O)CC(=O)OC(CCc2ccc(OCc3ccccc3)cc2)C1 (configuration not stated) |
| 221 to 223 °C | Cc1sc(N2CCN(C(=O)OC(C)(C)C)CC2)nc1/C=C/c1cn(-c2ccccc2)nc1O |
| 78 to 78.5 °C | CCCCCCCC(=O)CCC(=O)O |
| 103 to 105 °C | Cc1ccccc1Nc1cccc(-c2ccccc2)c1CN |
| 179 to 181 °C | CCC(=O)Nc1ccc(-c2ccncc2)cc1 |
| 142 °C | O=c1[nH]c2ccccc2n1CCCN1CCN(C(c2ccccc2)c2ccccn2)CC1 (configuration not stated) |
| 105 to 109 °C | O=C(CCn1ccnc1)c1ccc(Cl)cc1Cl |
| 112 to 113 °C | Clc1c2ccccc2nc2occc12 |
| 268 to 270 °C | CS(=O)(=O)c1cc(C(=O)N=C(N)N)ccc1Oc1ccc(=O)[nH]n1 |
| 136 to 137 °C | CCCc1nc2c(N)nc(C)c(C)c2n1CCCCN(OC)C(=O)c1ccccc1 |
| 78 to 79 °C | C=C(F)C(=O)Oc1ccc(C#N)cc1 |
| 153 to 155 °C | CC(C)c1ccc2c(CCCCN(C)S(=O)(=O)c3ccccc3)cc(C(=O)O)c-2cc1 |
| 172 to 173 °C | CC(C)(C)[Si](C)(C)N1C(=O)C(C(Cc2ccccc2)OC=O)C1SC(c1ccccc1)(c1ccccc1)c1ccccc1 (configuration not stated) |
| 134 to 135 °C | COC(=O)c1ccc(-c2nn(Cc3ccccc3)c3ccc([N+](=O)[O-])cc23)o1 |
| 201 to 204 °C | Cc1c(C(=O)N2Cc3ccccc3Cc3ccccc32)csc1C(N)=O |

| melting point | SMILES |
| --- | --- |
| 170 to 171 °C | O=c1c(Cc2cccnc2)cn2c3c(cc(Cl)cc13)Oc1cc(Cl)ccc1-2 |
| 185 to 186 °C | Fc1cc(F)c2c(c1)CC(n1cc[nH]c1=S)C2 (configuration not stated) |
| 147 to 149 °C | CN(Cc1ccccc1)CC1Nc2ccccc2Cn2cccc21 (configuration not stated) |
| 210 °C | CC1C(CCc2ccccc2)SC2=CC=NC3=CC=CC(c4ccccc4)C321 (configuration not stated) |
| 117 to 118 °C | CCOc1ncc(C(C)=O)cc1C(=O)O |
| 197 to 198 °C | CCNC(=O)Nc1cc(C(C)(C)C)c2c(c1)C(C)(C)CO2 |
| 162 °C | CCOc1cc(C)ccc1NC1CCN(CCCCNC(=O)c2ccc(-c3ccc(C(F)(F)F)cc3)cc2)CC1 |
| 66 °C | CN(C)c1ccccc1CNC(=O)C1Cc2ccccc2N1S(=O)(=O)c1ccc(-c2cccc(C(F)(F)F)c2)cc1 (configuration not stated) |
| 134 to 135 °C | COc1cccc(NC(=N)Nc2cccc(OC)c2)c1 |
| 189 to 191 °C | CCCCNC(=O)NS(=O)(=O)c1ccc(CCNC(=O)N2CC(C)=CC2=O)cc1 |
| 80.5 to 81 °C | COCCOc1ccc(C=O)c(Oc2ncc(C(F)(F)F)cc2Cl)c1 |
| 99 to 100 °C | C=C(c1ccsc1C=O)c1cc(C(C)(C)C)cc2c1CCC2(C)C |
| > 225 °C | COc1ccccc1CN[C@H]1CCCN[C@H]1C1CCCCC1 (relative stereo) |
| 235 °C | COc1ccc(S(=O)(=O)C2(C(=O)O)CCN(Cc3ccc(-c4cccs4)cc3)CC2)cc1 |
| 83 to 85 °C | O=C1CCC(N2CCN(Cc3ccccc3)CC2)CC1 |
| 57 to 58 °C | C=Cc1ccc(OS(C)(=O)=O)cc1 |
| 108 to 110 °C | CCOC(=O)c1cc(C(=O)c2cccc(S(=O)(=O)F)c2)sc1NC(=O)OCC(Cl)(Cl)Cl |
| 68 to 69 °C | COC(=O)c1cc(C)cc(C#N)c1 |
| 153 to 154 °C | O=C1N=C(N2CCCC2)SC1Cc1cccc(-c2ccc(O)c(C34CC5CC(CC(C5)C3)C4)c2)c1 (configuration not stated) |
| 145 to 148 °C | CCOC(=O)CNC(=O)c1ccc(-c2ccc([N+](=O)[O-])cc2)cc1 |
| 173 to 174 °C | C[C@@H]([C@H](O)c1ccc(O)cc1)N1CCC(O)(Cc2ccccc2)CC1 (relative stereo) |
| 116 to 119 °C | CC(C)(C)OC(=O)N[C@H](Cc1ccc(Cl)c(Cl)c1)C(=O)N1CCC[C@H]1C(=O)NC1CCc2nc(N)sc2C1 (some centres not stated) |
| 86.8 to 87.4 °C | COc1ccc(-c2cc(=O)n(CC(C)C)nc2-c2ccc(OC)c(F)c2)cc1 |
| 88 to 90 °C | O=C(C=Cc1cccnc1)NCCCCC1CCN(Cc2ccccc2)CC1 |
| 52 to 53 °C | CCCCCCCCCC(=O)CCC(C)=O |

| melting point | SMILES |
| --- | --- |
| 190 to 193 °C | COc1nc(C)nc(NC(=O)NS(=O)(=O)c2ccccc2-c2ccccc2)n1 |
| 195 to 200 °C | CCCN(Cc1ccc(-c2ccccc2-c2nnn[nH]2)cc1)c1ccncc1C(=O)O |
| 129 to 130 °C | Cc1oc(-c2ccccc2)nc1COc1ccc(I)cn1 |
| 133 to 135 °C | CC1(C)C=Cc2cc(C(=O)NCCc3ccc(OCc4ccccc4)cc3)ccc2O1 |
| 211 to 213 °C | COc1cccc(OC)c1C(=O)Nc1nnc(-c2ccc(NC(C)=O)cc2)s1 |
| 115 °C | O=C(OC1CCCCO1)C(c1ccccc1)(c1ccccc1)c1ccccc1 (configuration not stated) |
| 68 to 69 °C | COC(=O)C(CCCc1cc(C(C)(C)C)c(O)c(C(C)(C)C)c1)S(=O)(=O)C(CCCc1cc(C(C)(C)C)c(O)c(C(C)(C)C)c1)C(=O)OC (configuration not stated) |
| 242 to 244 °C | Nc1ncccc1-c1nc2cc(Br)cnc2n1-c1ccc(NC(=O)c2ccccc2)cc1 |
| 219 to 220 °C | Cc1cc(O)nc2nc(SCc3ccccc3)nn12 |
| 87 to 89 °C | CC(=O)O[C@H]1CC[C@H](c2ccc(CCl)cc2)CC1 |
| 150 to 153 °C | S=C1CNc2ccccc2CN1 |
| 124 to 126 °C | CC(C)(C)OC(=O)CN1CCN[C@@H](Cc2ccc(OC(C)(C)C)cc2)C1=O |
| 126 to 127 °C | CCCOc1cc(OCCCc2cn(-c3ccc(C(F)(F)F)cn3)nc2OCC)ccc1CCC(=O)O |
| 146 to 148 °C | COc1ccc(Cl)cc1C(=O)NCCC1CCN(S(=O)(=O)NC(=S)NC2CCCCC2)CC1 |
| 153 to 154 °C | N#CCCNC(=O)c1cccc(-c2ccc3ccn(Cc4ccc(Cl)cc4Cl)c3c2)c1 |
| 175 to 177 °C | Clc1ccc2c(c1)N=C1C=CC=CN1CO2 |
| 146 to 147 °C | COC(=O)c1ccc(NC(=O)C(=O)c2ccc3c(c2)C(C)(C)CCC3(C)C)cc1O |
| 125 to 127 °C | CC(=O)c1ccc2c(c1)C(=C1CCN(C)CC1)c1ccccc1S2 |
| 133 °C | CCOC(OCC)C(O)(Cc1c(NC(=O)C(C)(C)C)cnc(Cl)c1C)c1ccccc1 (configuration not stated) |
| 193 to 194 °C | COc1cccc([C@H]2O[C@H](CC#N)C(=O)N(CC(C)(C)C)c3ccc(Cl)cc32)c1OC |
| 262 to 264 °C | FC(F)(F)c1cc(Cl)c(-n2ncc(-c3nc(C(F)(F)F)c[nH]3)n2)c(Cl)c1 |
| 153 to 155 °C | CCCCC(CNC(=O)Nc1c(C(C)C)cccc1C(C)C)c1ccc2c(c1)OCO2 (configuration not stated) |
| 141 to 142 °C | Cc1nc(-c2ccc3c(c2)CCCC3)c(CC(Cl)C(=O)O)o1 (configuration not stated) |

| SMILES | melting point |
| --- | --- |
| O=C(Nc1ccc(Br)cc1)OC1CN2CCC1CC2 (configuration not stated) | 218 to 220 °C |
| Cc1nc(-c2ncn3c2[C@@H]2CCCN2C(=O)c2c(Cl)cccc2-3)n(C)n1 | 221 to 222 °C |
| COC(=O)C[C@H](Br)C(N)=O | 82 to 84 °C |
| Clc1ccc(C2=NNC(c3cccnc3)S2)cc1 (configuration not stated) | 106 to 108 °C |
